# According to patent US10899795B2, “Modified epitopes for boosting CD4+ T-cell responses” (Katholieke Universiteit Leuven, priority 2012, dated 2021):
# “Also recorded” adds a separate entry of the source.
# Legend:
# [1] = tested on: p21-35 (SEQ ID NO:3)-specific CD4+ T cell clone; test: Proliferation of Der p2 p21-35-specific CD4+ T cell clone with peptide-loaded antigen-presenting cells (3H-thymidine incorporation); assay type: cell-based, BALB/c mice; details: peptide 0.1 μM loaded on T cell-depleted mitomycin C-treated splenocytes; compared with p21-35 wildtype sequence (SEQ ID NO:3); 48 h + 18 h 3H-thymidine
# [2] = Direct binding ELISA of antibodies in blood of immunized BO2C11 BCR mice; assay type: in vivo; details: mice immunized with 50 μg peptide on alum on 4 occasions at 10-day intervals
# Description: (§1) A mouse strain was created which expresses the BO2C11 molecule as a B cell receptor. […] Mice were then bled and tested for the presence of antibodies recognizing the peptide of SEQ ID NO:10 and the BO2C11 antibody, as assess by direct binding ELISA.
# BO2C11 antibody = test: as above; assay type: in vivo; details: mice immunized with 50 μg peptide on alum on 4 occasions at 10-day intervals
# Description: as §1
# [3] = tested on: B cells expressing the BO2C11 BCR; test: FACS for BO2C11 BCR on circulating, splenic and bone marrow B cells of immunized mice; assay type: in vivo
# Protocol: as §1, with “ELISA. […] Furthermore, the presence of the BO2C11 BCR on circulating, splenic and bone marrow B cells was evaluated by FACS using an anti-human Fc-gamma antibody.” for “ELISA.”
# CD4+ T cells = test: Proliferation of CD4+ T cells stimulated with ALK peptide-loaded dendritic cells (tritiated thymidine incorporation); assay type: cell-based, C57BL/6 mice; details: four cycles of stimulation with 20 μg peptide; restimulation with 1 μM or 10 μM peptide of SEQ ID NO:14; compared with stimulation by SEQ ID NO:14
# G121 CD4+ T cell clone = test: FACS detection of CFSE-labeled G121 CD4+ T cell clone in immunized mice; assay type: in vivo, BALB/c mice; details: one day after i.v. injection of 200,000 cells per mouse in immunized mice
# G121 TCR = test: FACS detection of serum antibodies to G121 TCR in immunized mice; assay type: in vivo, BALB/c mice; details: G121 cells incubated with serum dilution, then FITC-labeled anti-mouse Fcgamma antibody
# [4] = tested on: macrophages presenting Ag85b derived epitopes; assay type: cell-based, C57BL/6 mice
# [5] = tested on: NPM-ALK tumor cells (R80 NPM-ALK cells, H-2b-restricted); test: Growth of NPM-ALK tumor in mice preimmunized with peptide on alum; assay type: in vivo, C57BL/6 mice; details: 50 μg peptide on alum, 4 times at 10-day intervals, before s.c. inoculation of 2×10^6 tumor cells; difference at day 20 p<0.008 (Mann-Whitney U test)
# [6] = tested on: ALK-specific CD4+ T cells; test: Activation of ALK-specific CD4+ T cells
substance,measurement,setting,value
"AHGSEPCIIHRGKPF (Der p2 amino acids 21-35 with mutation c21A) [SEQ ID NO:4, p21-35 peptide with cysteine in P(-4) substituted by alanine]",reduction of the proliferative response of the specific T cell clone,[1],70%
CAVY YCAVPDPDA FDI (CAVYYCAVPDPDAFDI; amino acids 111-125 of VH of human anti-factor VIII antibody BO2C11 preceded by cyteine) [SEQ ID NO:11],antibodies to the peptide of SEQ ID 10 (direct binding ELISA),[2],High concentrations of antibodies
same,antibodies to the BO2C11 antibody (direct binding ELISA),BO2C11 antibody,High concentrations of antibodies
same,"B cells expressing the transgenic BCR in circulation, spleen or bone marrow (FACS, anti-human Fc-gamma antibody)",[3],no B cells expressing the transgenic BCR
"CGG WTGPGAGPR (CGGWTGPGAGPR; amino acids 1544-1555 of ALK protein preceded by cysteine) [SEQ ID NO:15, ALK peptide with a single cysteine added at position 1544]",proliferation rate of CD4+ T cells (incorporation of tritiated thymidine),CD4+ T cells,significantly increased
CQTA VYFCASSER TGG (CQTAVYFCASSERTGG; amino acids 103-117 of VH of anti-Der p2 CD4+ T-cell clone G121 preceded by cysteine) [SEQ ID NO:13],residual CFSE-labeled G121 cells in peripheral blood or spleen (FACS),G121 CD4+ T cell clone,no residual G121 cells
same,antibodies to G121 TCR in serum of immunized mice (FACS),G121 TCR,contains antibodies to G121 TCR
CSWE YWGAQLNAM [SEQ ID NO:7],macrophage lysis (51Cr release),[4],significant degree of macrophage lysis
YCTQDPDVINTA (ALK-epitope) [SEQ ID NO:5],tumor growth in preimmunized mice versus control group not preimmunized,[5],very much reduced
same,activation of ALK-specific (class II-restricted) CD4+ T cells,[6],boost the activation; also recorded: increased activation properties
"YWGAQLNAM [SEQ ID NO:6, reference compound]",macrophage lysis (51Cr release),[4],not
